Literature values, collected in paper PMC7898808 (Diabetes, Obesity & Metabolism, 2020).
Where two headings read alike, the source gives them in different places.

Key:
[1] = system: NAFLD patients; conditions: 20 mg for 12 weeks
[2] = system: steady-state DNL; conditions: repeat dosing in NASH subjects
[3] = system: fructose-stimulated DNL; conditions: single dose of 20 mg, healthy population
[4] = system: hepatic DNL

For `COc1ccccc1[C@H](Cn1c(=O)n(C(C)(C)C(=O)O)c(=O)c2c(C)c(-c3ncco3)sc21)OC1CCOCC1` [GS-0976], the “patients achieving relative MRI-PDFF reduction of ≥30%” value [1] is listed as 43%, the “decrease of steady-state DNL” value [2] is listed as 22% and the “reduction of fructose-stimulated DNL” value [3] is listed as 70%.

In the case of `Cc1nnc(-c2cc(C(=O)N3CCC(c4ccc(C#N)cc4)CC3)c(C)cc2C2CCC2)[nH]1` [TVB-2640], the DNL inhibition ([4]; 50 mg daily dosing for 10 days) is listed as 23%, the DNL inhibition ([4]; 100 mg daily dosing for 10 days) is listed as 65% and the DNL inhibition ([4]; 150 mg daily dosing for 10 days) is listed as 77%.
